Source: patent US8178506B2, “Oligomeric compounds and compositions for use in modulation of small non-coding RNAs” (Regulus Therapeutics Inc., priority 2003, dated 2012)
In the oligonucleotide strings, read from the 5' end, every base follows the letter of its sugar. An asterisk marks phosphorothioate; unmarked linkages are phosphodiester. Other units and linkages are bracketed, terminal groups are in braces. A string of capitals states the bases alone. e = 2'-O-(2-methoxyethyl) (MOE); [5mC] = 5-methylcytosine; d = 2'-deoxy (DNA)

Assays:
Type in all cases: cell-based, human
PEPCK-c = PEPCK-c mRNA expression in HepG2 cells; conditions: for PEPCKc mRNA expression: Experiment 2, insulin treated: HepG2 cells transfected with oligomeric compound, 1 nM insulin for four hours, UTC + 1 nM insulin = 100; for PEPCKc mRNA: four hours, UTC = 100
IGFBP-1 = IGFBP-1 mRNA expression in HepG2 cells; conditions: for IGFBP1 mRNA expression: Experiment 2, insulin treated: HepG2 cells transfected with oligomeric compound, 1 nM insulin for four hours, UTC + 1 nM insulin = 100; for IGFBP1 mRNA: four hours, UTC = 100
follistatin = experiment: Follistatin mRNA expression in HepG2 cells; conditions: for Follistatin mRNA expression: Experiment 2, insulin treated: HepG2 cells transfected with oligomeric compound, 1 nM insulin for four hours, UTC + 1 nM insulin = 100; for Follistatin mRNA: four hours, UTC = 100
[1] = Experiment 1, basal (no insulin), HepG2, 100 nM oligomeric compound
[2] = Experiment 2, 1 nM insulin treated, HepG2, 100 nM oligomeric compound
[3] = HepG2 cells, Experiment 1, basal (no insulin)
[4] = Experiment 3, basal (no insulin), HepG2 cells, 48 hours post-transfection
[5] = Experiment 4, insulin-sensitization: HepG2 cells treated with 1 nM insulin for four hours, 48 h post-transfection, mRNA by real-time PCR

| Substance | PEPCK-c (% UTC) (PEPCK-c; [1]) | PEPCK-c (% UTC) (PEPCK-c; [2]) | IGFBP-1 (% UTC) (IGFBP-1; [1]) | IGFBP-1 (% UTC) (IGFBP-1; [2]) | Follistatin (% UTC) (follistatin; [1]) | Follistatin (% UTC) (follistatin; [2]) | PEPCKc mRNA (PEPCK-c; [3]) | IGFBP1 mRNA (IGFBP-1; [3]) | Follistatin mRNA (follistatin; [3]) | other results |
| --- | --- | --- | --- | --- | --- | --- | --- | --- | --- | --- |
| 327934 (antisense eG*eG*eT*eA*e[5mC]*eA*eA*eT*e[5mC]*eA*eA*e[5mC]*eG*eG*eT*e[5mC]*eG*eA*eT*eG*eG*eT) [compound 327934] | 99 | 105 | 231 | 244 | 140 | 103 | – | – | – | – |
| 327911 (antisense eG*e[5mC]*eT*eA*e[5mC]*e[5mC]*eT*eG*e[5mC]*eA*e[5mC]*eT*eG*eT*eA*eA*eG*e[5mC]*eA*e[5mC]*eT*eT*eT*eT) [compound 327911] | – | – | – | – | – | – | 52 | 157 | 81 | PEPCKc mRNA expression (PEPCK-c): 78; IGFBP1 mRNA expression (IGFBP-1): 160; Follistatin mRNA expression (follistatin): 71 |
| 328759 (antisense eG*eA*eG*eG*eG*dA*dT*dT*dG*dT*dA*dT*dG*dA*dA*e[5mC]*eA*eT*e[5mC]*eT) [compound 328759] | – | – | – | – | – | – | – | – | – | PEPCK-c (% UTC) (PEPCK-c; [4]): 98 % UTC; PEPCK-c (% UTC) (PEPCK-c; [5]): 92 % UTC; IGFBP-1 (% UTC) (IGFBP-1; [4]): 356 % UTC; IGFBP-1 (% UTC) (IGFBP-1; [5]): 212 % UTC; Follistatin (% UTC) (follistatin; [4]): 266 % UTC; Follistatin (% UTC) (follistatin; [5]): 224 % UTC |
| 327893 (antisense eA*eA*e[5mC]*e[5mC]*eA*e[5mC]*eA*e[5mC]*eA*eA*e[5mC]*e[5mC]*eT*eA*e[5mC]*eT*eA*e[5mC]*e[5mC]*eT*e[5mC]*eA) [compound 327893] | – | – | – | – | – | – | 81 | 107 | 93 | – |
| 341806 (antisense GCCAATATTTCTGTGCTGCTA; all 2'-MOE, all phosphorothioate, methylation of C not given here) [compound 341806] | – | – | – | – | – | – | 79 | 128 | 75 | – |
| 327897 (antisense eA*e[5mC]*eA*eG*eG*e[5mC]*e[5mC]*eG*eG*eG*eA*e[5mC]*eA*eA*eG*eT*eG*e[5mC]*eA*eA*eT*eA) [compound 327897] | – | – | – | – | – | – | 72 | 163 | 129 | PEPCKc mRNA expression (PEPCK-c): 78; IGFBP1 mRNA expression (IGFBP-1): 243; Follistatin mRNA expression (follistatin): 123 |
| 327886 (antisense e[5mC]*eG*e[5mC]*eG*eT*eA*e[5mC]*e[5mC]*eA*eA*eA*eA*eG*eT*eA*eA*eT*eA*eA*eT*eG) [compound 327886] | – | – | – | – | – | – | 61 | 176 | 82 | – |
| 327900 (antisense e[5mC]*eT*eG*e[5mC]*e[5mC]*eT*eG*eT*e[5mC]*eT*eG*eT*eG*e[5mC]*e[5mC]*eT*eG*e[5mC]*eT*eG*eT) [compound 327900] | – | – | – | – | – | – | 88 | 102 | 111 | – |
| 341805 (antisense ACCCTTATCAGTTCTCCGTCCA; all 2'-MOE, all phosphorothioate, methylation of C not given here) [compound 341805] | – | – | – | – | – | – | 40 | 105 | 63 | – |
| 338664 (antisense e[5mC]*eA*eG*eA*e[5mC]*eT*e[5mC]*e[5mC]*e[5mC]*eA*eA*e[5mC]*eT*eG*eA*e[5mC]*e[5mC]*eA*eG*eA) [compound 338664] | 75 | 76 | 90 | 100 | 93 | 84 | – | – | – | – |
| 327895 (antisense eA*e[5mC]*eA*eA*eA*e[5mC]*eA*e[5mC]*e[5mC]*eA*eT*eT*eG*eT*e[5mC]*eA*e[5mC]*eA*e[5mC]*eT*e[5mC]*e[5mC]*eA) [compound 327895] | – | – | – | – | – | – | 71 | 108 | 83 | – |
| 327920 (antisense eG*eA*eG*eA*e[5mC]*e[5mC]*e[5mC]*eA*eG*eT*eA*eG*e[5mC]*e[5mC]*eA*eG*eA*eT*eG*eT*eA*eG*e[5mC]*eT) [compound 327920] | – | – | – | – | – | – | 52 | 165 | 99 | PEPCKc mRNA expression (PEPCK-c): 59; IGFBP1 mRNA expression (IGFBP-1): 267; Follistatin mRNA expression (follistatin): 102 |
| 327890 (antisense eA*eG*e[5mC]*eA*e[5mC]*eA*eA*eA*e[5mC]*eT*eA*e[5mC]*eT*eA*e[5mC]*e[5mC]*eT*e[5mC]*eA) [compound 327890] | 85 | 113 | 99 | 88 | 78 | 115 | – | – | – | – |
| 327954 (antisense eA*e[5mC]*eA*eA*eA*eG*eT*eT*e[5mC]*eT*eG*eT*eG*eA*eT*eG*e[5mC]*eA*e[5mC]*eT*eG*eA) [compound 327954] | 79 | 102 | 118 | 120 | 100 | 105 | – | – | – | – |
| 327925 (antisense eT*eA*eG*e[5mC]*eT*eG*eG*eT*eT*eG*eA*eA*eG*eG*eG*eG*eA*e[5mC]*e[5mC]*eA*eA) [compound 327925] | 145 | 182 | 152 | 166 | 110 | 148 | – | – | – | – |
| 327885 (antisense eA*e[5mC]*eT*eA*e[5mC]*e[5mC]*eT*eG*e[5mC]*eA*e[5mC]*eT*eG*eT*eA*eA*eG*e[5mC]*eA*e[5mC]*eT*eT*eT*eG) [compound 327885] | – | – | – | – | – | – | 73 | 161 | 74 | – |
| 327892 (antisense eA*e[5mC]*eT*eT*eT*e[5mC]*eG*eG*eT*eT*eA*eT*e[5mC]*eT*eA*eG*e[5mC]*eT*eT*eT*eA) [compound 327892] | 75 | 104 | 108 | 139 | 91 | 96 | – | – | – | – |
| 328677 (eT*e[5mC]*e[5mC]*eT*eG*dG*dA*dT*dG*dA*dT*dA*dT*d[5mC]*dT*eA*e[5mC]*e[5mC]*eT*e[5mC]; antisense) [compound 328677] | – | – | – | – | – | – | – | – | – | PEPCK-c (% UTC) (PEPCK-c; [4]): 145 % UTC; PEPCK-c (% UTC) (PEPCK-c; [5]): 117 % UTC; IGFBP-1 (% UTC) (IGFBP-1; [4]): 208 % UTC; IGFBP-1 (% UTC) (IGFBP-1; [5]): 159 % UTC; Follistatin (% UTC) (follistatin; [4]): 130 % UTC; Follistatin (% UTC) (follistatin; [5]): 118 % UTC |
| 328115 (antisense eA*eG*eA*eA*eG*eG*eT*eG*eG*eG*eG*eA*eG*e[5mC]*eA*eG*e[5mC]*eG*eT*e[5mC]*eA) [compound 328115] | – | – | – | – | – | – | – | – | – | PEPCKc mRNA expression (PEPCK-c): 59; IGFBP1 mRNA expression (IGFBP-1): 120; Follistatin mRNA expression (follistatin): 91 |
| 327878 (antisense e[5mC]*eT*eA*eG*eT*eG*eG*eT*e[5mC]*e[5mC]*eT*eA*eA*eA*e[5mC]*eA*eT*eT*eT*e[5mC]*eA*e[5mC]) [compound 327878] | 45 | 29 | 162 | 185 | 124 | 150 | – | – | – | – |
